In ChEMBL document CHEMBL1201862, “PubChem BioAssay data set” (2004):
The source made the active and inactive calls.

Assays:
[1] = tested on: Streptococcus sp. 'group A'; experiment: Streptococcus pyogenes SK(-)GAS viability under kanamycin – luminescence, BacTiterGlo, confirmation, counter-screen for streptokinase expression inhibitor project, dose response (AID 1900); type: functional, organism-based
BJ [2] = experiment: BJ-TERT fibroblast viability loss – cell-based, RAS-independent, luminescence, dose response (AID 1933); type: functional; details: Homo sapiens
Streptokinase A = biological target: T1, Streptokinase A (Streptococcus pyogenes serotype M1, UniProt P10520); experiment: viability-normalized secreted streptokinase activity reduction – plasminogen activation absorbance, OD405, dose response (AID 1914); type: functional, Streptococcus pyogenes M1 GAS;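 note: secreted streptokinase activity via plasminogen activation per viability signal from cell pellet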
T1 sequence (P10520 whole entry): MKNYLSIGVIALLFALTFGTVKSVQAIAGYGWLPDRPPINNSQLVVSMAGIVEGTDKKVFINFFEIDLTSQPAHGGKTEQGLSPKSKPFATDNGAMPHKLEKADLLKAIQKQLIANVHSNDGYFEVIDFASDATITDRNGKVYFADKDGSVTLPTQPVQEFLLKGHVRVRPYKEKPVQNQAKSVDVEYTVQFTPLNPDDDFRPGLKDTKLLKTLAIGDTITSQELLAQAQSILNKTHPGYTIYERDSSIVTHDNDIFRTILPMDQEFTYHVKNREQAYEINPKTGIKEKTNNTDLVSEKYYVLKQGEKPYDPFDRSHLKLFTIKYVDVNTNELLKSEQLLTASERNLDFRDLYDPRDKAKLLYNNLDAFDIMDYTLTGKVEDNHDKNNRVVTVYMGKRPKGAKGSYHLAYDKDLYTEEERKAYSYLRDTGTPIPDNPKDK

BJ [3] = experiment: cells; type: functional, cell-based; details: Homo sapiens
[4] = microbe, parasite or virus in culture; type: functional; details: Mycobacterium tuberculosis
BJ [5] = experiment: BJ-TERT-LT-ST fibroblast viability loss – cell-based, RAS-independent, luminescence, dose response (AID 1935); type: functional; details: Homo sapiens;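 note: BJ fibroblasts immortalized with TERT plus LT and ST oncogenes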
[6] = DRD fibroblast viability loss – cell-based, non-viral oncogenic, luminescence, dose response (AID 1934); type: functional; details: Homo sapiens
Streptococcus = experiment: GAS UMAA2166 growth inhibition – luminescence, BacTiterGlo, counter-screen for streptokinase expression inhibitor project, dose response (AID 1915); type: functional, organism-based;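 note: potency for reduction of bacterial viability or growth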
[7] = biological target: T2, Heat shock factor protein 1 (Mus musculus, UniProt P38532); experiment: enhancement of HSF1-driven luciferase signal – cell-based, NIH3T3, luminescence, dose retest, confirmation (AID 435004); type: functional;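 note: stress induced by proteasome inhibitor MG132 added 30 min after compound; luciferase reporter driven by HSF1 response element in NIH3T3 cells; actives raise luminescence as potentiators of the MG132 stress response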
T2 sequence (P38532 whole entry): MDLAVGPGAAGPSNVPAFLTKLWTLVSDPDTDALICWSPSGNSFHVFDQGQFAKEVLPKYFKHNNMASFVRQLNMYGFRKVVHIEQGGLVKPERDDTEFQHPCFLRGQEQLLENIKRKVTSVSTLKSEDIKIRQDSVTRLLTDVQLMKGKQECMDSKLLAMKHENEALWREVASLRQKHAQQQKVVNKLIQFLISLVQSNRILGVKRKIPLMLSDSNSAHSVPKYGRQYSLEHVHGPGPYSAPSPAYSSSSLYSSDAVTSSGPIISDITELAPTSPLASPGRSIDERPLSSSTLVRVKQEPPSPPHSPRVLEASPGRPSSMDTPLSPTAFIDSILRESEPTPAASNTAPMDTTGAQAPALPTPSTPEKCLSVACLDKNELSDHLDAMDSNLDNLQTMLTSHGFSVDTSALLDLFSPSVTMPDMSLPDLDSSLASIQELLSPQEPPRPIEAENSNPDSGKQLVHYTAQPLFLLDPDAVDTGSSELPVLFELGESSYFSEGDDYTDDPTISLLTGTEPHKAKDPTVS

[8] = biological target: Heat shock protein HSP 90-alpha (Homo sapiens, UniProt P07900); type: functional, organism-based
INS1 = experiment: INS-1E survival protection against cytokine death – cell-based, luminescence, retest, dose response (AID 449756); type: functional; details: Rattus norvegicus;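 note: cell death triggered by IL-1 beta plus TNF-alpha plus IFN-gamma mixture; protective hits raise ATP signal compared with cytokine alone wells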
[9] = A Cell Based Secondary Assay to Explore Cytotoxicity in THP-1 Cells of Compounds that Modulate Mycobacterium tuberculosis in Media Containing Glycerol versus Media without Glycerol (2).; type: functional
[10] = Vero cell cytotoxicity, cytotoxicity control for M. tuberculosis inhibitor project, purified and synthesized samples, set 3 (AID 504684); type: functional
[11] = THP-1 cell cytotoxicity, cytotoxicity control, set 4 (AID 504911); type: functional; details: Mycobacterium tuberculosis
[12] = A Cell Based Secondary Assay to Explore Cytotoxicity in HepG2 Cells of Compounds that Modulate Mycobacterium tuberculosis in Media Containing Glycerol versus Media without Glycerol (2).; type: functional
[13] = THP-1 cell cytotoxicity, dose response, cytotoxicity control, set 3 (AID 504852); type: functional; details: Mycobacterium tuberculosis

In the case of Cc1cccc(/C=C/C(=O)c2ccc([N+](=O)[O-])o2)c1, the EC50 [1] is reported as 3.96 µM (active), the EC50 (BJ [2]) is reported as > 150 µM (not active) and the EC50 (Streptokinase A) is reported as 9.69 µM (active). For the same compound, the EC50 (BJ [3]) was > 150 µM (inconclusive), the CC50 [4] was 18.8 µM (active) and the EC50 (BJ [5]) was > 150 µM (inconclusive). For the same compound, the EC50 [6] was 2.23 µM (active), the EC50 (Streptococcus) was 14.4 µM (active) and the EC50 [7] was 3.43 µM (inconclusive). For the same compound, the AC50 [8] was 2.39 µM (active), the AC50 (INS1) was 3.29 µM (active) and the CC50 [9] was 12.2 µM (active). For the same compound, the CC50 [10] was 12.4 µM (active), the CC50 [11] was > 100 µM (active) and the CC50 [12] was 8.39 µM (active). For the same compound, the CC50 [13] was > 100 µM (active).
